The record followed here is patent publication US12024506B2, “Compounds” (Oxford University Innovation Limited, priority 2018, dated 2024).

This experiment concerns the target T1, GST-human KRas166 (G12V) GPPNHP (Homo sapiens, UniProt P01116, G12V).
T1 construct: made in house; host or cells: E. coli C41(DE3)
Kind of experiment: KRas small-molecule screening by SPR (Biacore T200). The class given is binding. The settings on record: compound 100 uM, 5% DMSO buffer; immobilised GST-KRas166 (G12V) GPPNHP. Here is the method: For SPR assays pGEX-KRAS(G12V) plasmid was transformed into E. coli C41(DE3). Bacterial cells were cultured at 37° C. to an OD600 of 0.6 and induced with IPTG (final 0.1 mM) at 18° C. over night. The GST fusion proteins were extracted from bacteria pellets after cell disruption in 140 mM NaCl, 2.7 mM KCl, 10 mM NaH2PO4, 1.8 mM KH2PO4, 1 mM EDTA, 2 mM MgCl2 pH 7.4 and purified by glutathione-sepharose column chromatography (GE Healthcare), eluting with 50 mM Tris-HCl pH8.0, 10 mM reduced glutathione, 1 mM DTT, 2 mM MgCl2. The eluted proteins were dialysed against 50 mM Tris-HCl pH8.0, 1 mM DTT, 2 mM MgCl2 and concentrated to 10 mg/ml using a Biomax-30 ULTRAFREE-15 centrifugal filter device (Millipore). Purified KRAS protein was loaded with GPPNHP as described elsewhere (Pacold et al., 2000). Loaded protein was then purified by gel filtration on a HiLoad Superdex-75 HR column (GE Healthcare) in 1×PBS pH7.4, 5 mM MgCl2 and concentrated for storage.
Protocol for KRas Small-Molecule Screening and Affinity Measurements by SPR
To a previously immobilized CM5 chip (GE Healthcare BR-1005-30) with anti GST antibody via amine coupling method, GST in channel 1 and GST-human KRas166 (G12V) GPPNHP in channel 2 were immobilised. GST was immobilised between 2,000 and 5,000 Response units. KRAS166 (G12V) was immobilized between 10,000 to 15,000 Response Units.
In a 96 well plate, compounds were diluted in […], 5 mM MgCl2 and 5% DMSO Buffer to a final concentration of 100 uM. DCAl was used as positive control. Experiment also included a solvent correction curve for 5% DMSO. Screening and evaluation of the protein immobilization and the compounds screening was done accordingly to the BIACORE T200 control and evaluation software.
Calculations for how many response units are required for a 1:1 ratio of compound/protein interaction are shown below. • Protein immobilisation: 10,000 RU; average fragment 300 Da in size. • Rmax=(MWA/MWL)×RL×SM • MWA is the molecular weight of the analyte in Da • MWL is the molecular weight of the ligand in Da • RL is the immobilization level in RU • SM is the molar stoichiometry (assume 1:1) • Rmax=300/47,500×10,000×1 • Rmax=63 RU. Cell Viability Assay protocols Assay 1

`CN(C)CCOc1ccc(C(=O)NCC2COc3cccc(-c4cc(N5CCOCC5)ccn4)c3O2)cc1` (centres unmarked) [Example 102, 4-(2-Dimethylamino-ethoxy)-N-[8-(4-morpholin-4-yl-pyridin-2-yl)-2,3-dihydro-benzo[1,4]dioxin-2-ylmethyl]-benzamide]: the “SPR Response Units” value is on record as 126 Response Units.
Then `CN(C)CCOc1ccc(C(=O)NCC2COc3cccc(-c4cccc(N(C)C)n4)c3O2)cc1` (centres unmarked) [Example 103, 4-(2-Dimethylamino-ethoxy)-N-[8-(6-dimethylamino-pyridin-2-yl)-2,3-dihydro-benzo[1,4]dioxin-2-ylmethyl]-benzamide], with 64 Response Units; and `CN(C)CCOc1ccc(C(=O)NCC2COc3cccc(-c4ccccn4)c3O2)cc1` (centres unmarked) [Example 104, 4-(2-Dimethylamino-ethoxy)-N-(8-pyridin-2-yl-2,3-dihydro-benzo[1,4]dioxin-2-ylmethyl)-benzamide], with 35 Response Units; and `CN1CCN(Cc2ccc(C(=O)NCC3COc4cccc(-c5ccc(OCCN6CCOCC6)cn5)c4O3)o2)CC1` (centres unmarked) [Example 107, 5-(4-methyl-piperazin-1-ylmethyl)-furan-2-carboxylic acid {8-[5-(2-morpholin-4-yl-ethoxy)-pyridin-2-yl]-2,3-dihydro-benzo[1,4]dioxin-2-ylmethyl}-amide], with 9 Response Units.
On to `OCC1COc2cccc(-c3ccc(OCCN4CCOCC4)cn3)c2O1` (centres unmarked) [Example 110, {8-[5-(2-Morpholin-4-yl-ethoxy)-pyridin-2-yl]-2,3-dihydro-benzo[1,4]dioxin-2-yl}-methanol], for which the “SPR Response Units” value is on record as 4.6 Response Units.
In the case of `O=C(NCC1COc2cccc(-c3ccc(OCCN4CCOCC4)cn3)c2O1)C1CCOCC1` (centres unmarked) [Example 111, Tetrahydro-pyran-4-carboxylic acid {8-[5-(2-morpholin-4-yl-ethoxy)-pyridin-2-yl]-2,3-dihydro-benzo[1,4]dioxin-2-ylnethyl}-amide], the “SPR Response Units” value was 29 Response Units.
For `COc1nc(-c2cccc3c2OCCO3)ccc1NC(=O)CC1CCN(C)CC1` [Example 113, N-[6-(2,3-Dihydro-benzo[1,4]dioxin-5-yl)-2-methoxy-pyridin-3-yl]-2-(1-methyl-piperidin-4-yl)-acetamide], the “SPR Response Units” value is listed as 30 Response Units.
Then `COc1cc(N)cc(-c2cccc3c2O[C@H](CNC(=O)c2ccc(CN4CCN(C)CC4)o2)CO3)n1` [Example 114, 5-(4-Methyl-piperazin-1-ylmethyl)-furan-2-carboxylic acid [(R)-8-(4-amino-6-methoxy-pyridin-2-yl)-2,3-dihydro-benzo[1,4]dioxin-2-ylmethyl]-amide], with 23 Response Units; and `COc1nc(Nc2cccc3c2OC(CNC(=O)c2ccc(CN4CCN(C)CC4)o2)CO3)ccc1NC(=O)[C@H]1CCCN1` (stereo partly drawn) [Example 131, (R)-Pyrrolidine-2-carboxylic acid{2-methoxy-6-[3-({[5-(4-methyl-piperazin-1-ylmethyl)-furan-2-carbonyl]-amino}-methyl)-2,3-dihydro-benzo[1,4]dioxin-5-ylamino]-pyridin-3-yl}-amide], with 40 Response Units; and `COc1cc(NC(=O)[C@@H]2CC[C@H](N)C2)cc(-c2cccc3c2OCCO3)n1` [Example 133, (1R,3S)-3-Amino-cyclopentanecarboxylic acid[2-(2,3-dihydro-benzo[1,4]dioxin-5-yl)-6-methoxy-pyridin-4-yl]-amide], with 96 Response Units.
As for `COc1cc(NC(=O)N[C@@H]2CC[C@H](N)C2)cc(-c2cccc3c2OC(CNC(=O)C2CCOCC2)CO3)n1` (some centres unmarked) [Example 135], the “SPR Response Units” value stood at 57 Response Units.
Then `COc1cc(NC(=O)N[C@@H]2CC[C@H](N)C2)cc(-c2cccc3c2OCCO3)n1` [Example 136, 1-((1R,3S)-3-Amino-cyclopentyl)-3-[2-(2,3-dihydro-benzo[1,4]dioxin-5-yl)-6-methoxy-pyridin-4-yl]-urea], with 75 Response Units.
Under `CN1CCN(Cc2ccc(C(=O)NCC3COc4cccc(-c5cn(C)cn5)c4O3)o2)CC1` (centres unmarked) [Example 137, 5-(4-Methyl-piperazin-1-ylmethyl)-furan-2-carboxylic acid [8-(1-methyl-1H-imidazol-4-yl)-2,3-dihydro-benzo[1,4]dioxin-2-ylmethyl]-amide] stands 50 Response Units; under `CN(C)Cc1cccc(Nc2ccnc(-c3cccc4c3OC(CNC(=O)C3CCOCC3)CO4)c2)c1` (centres unmarked) [Example 140, tetrahydro-pyran-4-carboxylic acid {8-[4-(3-dimethylaminomethyl-phenylamino)-pyridin-2-yl]-2,3-dihydro-benzo[1,4]dioxin-2-ylmethyl}-amide], 32 Response Units; under `COc1nc(-c2cccc3c2OC(CNC(=O)C2CCOCC2)CO3)ccc1NC(=O)N[C@H]1CC[C@@H](N)C1` (stereo partly drawn) [Example 141, tetrahydro-pyran-4-carboxylic acid (8-{5-[3-((1S,3R)-3-amino-cyclopentyl)-ureido]-6-methoxy-pyridin-2-yl}-2,3-dihydro-benzo[1,4]dioxin-2-ylmethyl)-amide], 80 Response Units.
Under `N[C@H]1CC[C@@H](NC(=O)Nc2ccnc(-c3cccc4c3OC(CNC(=O)C3CCOCC3)CO4)c2)C1` (stereo partly drawn) [Example 142, tetrahydro-pyran-4-carboxylic acid (8-{4-[3-((1R,3S)-3-amino-cyclopentyl)-ureido]-pyridin-2-yl}-2,3-dihydro-benzo[1,4]dioxin-2-ylmethyl)-amide] stands 26 Response Units; under `COc1nc(-c2cccc3c2OCCO3)ccc1Nc1ccccc1C(=O)NCC1CCN(C(=O)OC(C)(C)C)CC1` [Example 152, 4-({2-[6-(2,3-dihydro-benzo[1,4]dioxin-5-yl)-2-methoxy-pyridin-3-ylamino]-benzoylamino}-methyl)-piperidine-1-carboxylic acid tert-butyl ester], 36 Response Units.
With `c1cc2c(c(-c3ccc(Nc4ccc(CNCC5COCCN5)cc4)nn3)c1)OCCO2` (centres unmarked) [Example 154, [6-(2,3-Dihydro-benzo[1,4]dioxin-5-yl)-pyridazin-3-yl]-(4-{[(morpholin-3-ylmethyl)-amino]-methyl}-phenyl)-amine], the “SPR Response Units” value is 59 Response Units.
Then `CN(C)Cc1cccc(C(=O)N2CCN(c3cccc4c3OCCO4)CC2)c1` [Example 156, [4-(2,3-Dihydro-benzo[1,4]dioxin-5-yl)-piperazin-1-yl]-(3-dimethylaminomethyl-phenyl)-methanone], with 5 Response Units; and `COc1nc(-c2cccc3c2OCCO3)ccc1Nc1ccc(C(=O)NCc2cc[nH]c(=O)c2)cc1` [Example 161], with 16 Response Units.
For `COc1nc(-c2cccc3c2OCCO3)ccc1Nc1cccc(C(=O)NCc2cccc(F)n2)c1` [Example 168, 3-[6-(2,3-Dihydro-benzo[1,4]dioxin-5-yl)-2-methoxy-pyridin-3-ylamino]-N-(6-fluoro-pyridin-2-ylmethyl)-benzamide], the “SPR Response Units” value is 23 Response Units.
Then `CC(C)(C)OC(=O)NCc1ccc(C(=O)N2CCN(c3cccc4c3OCCO4)CC2)cc1` [Example 169, {4-[4-(2,3-Dihydro-benzo[1,4]dioxin-5-yl)-piperazine-1-carbonyl]-benzyl}-carbamic acid tert-butyl Ester], with 25 Response Units.
Under `COc1nc(-c2cccc3c2OCCO3)ccc1Nc1ccc(C(=O)NCc2cccc(C)n2)cc1` [Example 174, 4-[6-(2,3-Dihydro-benzo[1,4]dioxin-5-yl)-2-methoxy-pyridin-3-ylamino]-N-(6-methyl-pyridin-2-ylmethyl)-benzamide] stands 43 Response Units.
